Measurements taken from publication PMC5342726, “Identification of small molecule inhibitors of ERCC1-XPF that inhibit DNA repair and potentiate cisplatin efficacy in cancer cells” (Oncotarget, 2016).
Each block holds one compound with its values, some of them ahead of it.

Legend:
ERCC1-XPF = biological target: T1, ERCC1-XPF (Homo sapiens, UniProt P07992+Q92889); assay: HTS fluorescence assay of ERCC1-XPF endonuclease activity; assay type: biochemical; conditions: IC50s calculated by CompuSyn, SD from 3 plots, read-out: ERCC1-XPF IC50
T1 construct: made in house; host or cells: Sf9 insect cells, baculovirus (obtained from Aziz Sancar)
T1 sequence (Q92889 1-916): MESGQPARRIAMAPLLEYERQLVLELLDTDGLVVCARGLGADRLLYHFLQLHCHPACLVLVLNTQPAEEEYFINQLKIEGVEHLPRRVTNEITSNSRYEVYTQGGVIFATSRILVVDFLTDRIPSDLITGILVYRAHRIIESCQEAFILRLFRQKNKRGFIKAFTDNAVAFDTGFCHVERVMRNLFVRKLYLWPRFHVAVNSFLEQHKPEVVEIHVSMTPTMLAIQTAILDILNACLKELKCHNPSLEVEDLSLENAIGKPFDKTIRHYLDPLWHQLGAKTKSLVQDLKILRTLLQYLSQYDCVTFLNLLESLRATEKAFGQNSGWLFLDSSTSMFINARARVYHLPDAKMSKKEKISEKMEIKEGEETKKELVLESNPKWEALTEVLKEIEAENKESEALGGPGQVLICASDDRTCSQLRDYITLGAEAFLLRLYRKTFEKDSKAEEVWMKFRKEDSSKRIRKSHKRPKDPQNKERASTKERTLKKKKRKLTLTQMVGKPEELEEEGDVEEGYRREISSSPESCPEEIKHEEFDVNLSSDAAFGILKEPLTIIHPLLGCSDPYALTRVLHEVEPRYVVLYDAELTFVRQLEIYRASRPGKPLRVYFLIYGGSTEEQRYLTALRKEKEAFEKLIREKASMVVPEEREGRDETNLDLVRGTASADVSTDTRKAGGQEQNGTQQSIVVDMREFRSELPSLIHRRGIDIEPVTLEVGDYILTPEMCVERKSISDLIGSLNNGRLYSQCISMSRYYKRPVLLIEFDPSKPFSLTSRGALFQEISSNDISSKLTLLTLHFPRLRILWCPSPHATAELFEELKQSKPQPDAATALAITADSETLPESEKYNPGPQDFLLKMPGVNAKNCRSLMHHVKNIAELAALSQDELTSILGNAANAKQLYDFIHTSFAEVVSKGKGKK
T1 sequence (P07992 1-297): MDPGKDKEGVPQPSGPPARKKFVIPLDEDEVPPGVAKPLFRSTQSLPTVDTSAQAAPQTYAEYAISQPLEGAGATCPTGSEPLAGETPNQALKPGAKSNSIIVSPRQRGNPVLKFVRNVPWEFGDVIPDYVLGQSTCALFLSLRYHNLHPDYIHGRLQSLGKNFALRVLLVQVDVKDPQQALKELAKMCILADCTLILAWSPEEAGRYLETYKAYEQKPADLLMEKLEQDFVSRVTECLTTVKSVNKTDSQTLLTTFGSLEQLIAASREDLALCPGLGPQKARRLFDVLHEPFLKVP
Excerpt: To screen for ERCC1-XPF inhibition, an existing in vitro assay was optimized to a 96-well plate format to allow for screening of compound libraries (NCI-DTP diversity set). These compounds and subsequent vialed compounds were from the Drug Synthesis and Chemistry Branch, Developmental Therapeutics Program, Division of Cancer Treatment and Diagnosis at the National Cancer Institute. We used purified ERCC1-XPF (Supplementary Figure S1) and describe the purification procedure in Supplementary Information. The initial cuvette-based assay was optimized for DNA, MgCl2 concentrations as well as the incubation time to be used in the fluorescence assay in a 96 well plate format (Supplementary Figure S2). The assay consists of a 10 nM DNA (Q+Fl substrate annealed, described below) and 7.5 nM ERCC1-XPF protein in buffer containing 50 mM Tris-HCl pH8.0, 2 mM MgCl2, 0.1 mM BSA, and 0.5 mM β-mercaptoethanol. For preliminary screening, 150 μL of DNA was added to each well and the fluorescence signal was measured at 525 nm following excitation at 485 nm. Compounds or controls were then added to individual wells for a total of 80 compounds on each plate and the fluorescent signal was re-measured. We initially ran the screen using 50 μM compound and then repeated using 10 μM compound. 16 controls were used per plate, which consisted of buffer alone, DNA alone, ERCC1-XPF alone, 10 nM fluorescein ssDNA (positive signal), and 10 nM Q-Fl DNA with 7.5 nM ERCC1-XPF (positive signal). 7.5 nM ERCC1-XPF was added to each well containing the compounds and DNA and incubated for 30 minutes at 37°C after which the fluorescent signal was measured again.
The synthetic DNA substrate mimics a native forked ssDNA-dsDNA substrate of ERCC1-XPF (Figure 1A). This forked DNA substrate has a dsDNA region (14 bases) and a region containing two ssDNA flaps (12 bases each). One 26-mer DNA oligonucleotide contains a site-specific fluorescein modification at the indicated position (Fl Oligo: 5' - GCCAGCGCTCGGAT(AminoC6dT)(FLSN) TTTTTTTTTTT). The semi-complementary strand was synthesized containing a DABCYL quencher (Q) molecule at the depicted position (Q Oligo: 5' - TTTTTTTTTTT (AminoC6dT)(Dabcyl) ATCCGAGCGCTGGC; Figure 1A). The fluorescein (*) molecule has an excitation peak centered at 485 nm and an emission peak centered at 525 nm. The quencher (Q) molecule is able to quench the fluorescence signal of the fluorescein when it is in close proximity. The design of the semi-duplex DNA substrate is such that the fluorescein and DABCYL quencher are directly opposite one another at the double-stranded and single-stranded DNA junction (Figure 1A). […] Upon cleavage by ERCC1-XPF, (~4-5 bases from the dsDNA-ssDNA) the fluorescein label on the cleaved DNA is released into solution and results in a significant increase in fluorescence as the quencher is no longer in close proximity. The DNA substrate is also incorporated with a restriction enzyme site (HhaI) within the duplex DNA that results in a cleavage pattern similar to ERCC1-XPF. This serves as a positive control and allows assessment of ERCC1-XPF cleavage product. This DNA substrate is used in the solution based fluorescence screening assay to screen for inhibitors of ERCC1-XPF endonuclease activity. In the 96 well platform, the Z factor was calculated to be ~0.87 indicating a highly robust assay and highly suitable for a HTS. A Molecular Devices Spectramax M5 plate reader was used for fluorescence detection. The DNA substrate was the same for gel-based assays besides the fluorescent/quencher modifications and 5'-labeling using γ-ATP^32. For the secondary screen, the reaction was setup in a tube with 10 nM DNA, 7.5 nM XPF-ERCC1, 20 U/ml of HhaI, or 7.5 nM XPG (Supplementary Figure S3A) in nuclease reaction buffer with compound titration and incubated at 37°C for 30 minutes. The reaction was stopped by chelating the metal in the buffer and read in the Spectramax M5 plate reader.

H460 cells [1] = assay: Colony survival assay in H460 cells; assay type: cell-based; conditions: SAR, Supplementary Figure S6; cell line not stated
Protocol: We used H460, NSCLC cells, to first assess the impact on colony survival by knocking down ERCC1-XPF in these cells. […] Next, to assess if colony survival is affected we titrated cisplatin in these cells using a fixed concentration of Hit 1(50 μM) or Hit 2 (25 and 50 μM). […] Next, we assessed cisplatin potentiation by treating cells at a fixed cisplatin concentration (cisplatin IC50 in H460 cells) with Hit 1 or 2 titration (Figure 4C, filled symbols). H460 cells were treated with compound for a total of 4 hours while cisplatin was added to the media after 2 hours of compound pre-treatment. […] We also titrated Hit 1 or Hit 2 alone in these cells and treated for 4 h. […] We also assessed the effects of Hit 2 in another NSCLC cell line (H1299), which was either ERCC1 wildtype (WT) or knockout (KO) (Figure 4E).
Colony survival assay in a total reaction volume of 2.4 mL in a six-well plate Cells were split and seeded at a density of 300-400 format. Cells were transfected for 48 hours after which cells in a 60 mm plate and incubated overnight. The next complete media was added for 24 hours. Cells were day, the cells were treated with a fixed concentration of the seeded for clones and clones were selected using standard compound (Hit 1 or Hit 2) with cisplatin titration. After methods. ERCC1 KO clones were tested for ERCC1 treatment, fresh complete medium with antibiotics was and XPF expression by Western Blot using the ERCC1 added and the cells were then allowed to form colonies. In antibodies, 8F1, FL-297, and D-10 and the XPF antibody another method, the cells were seeded onto 60mm plates 3F2/3 (Santa Cruz).
Validation of genome editing was performed alone or titrated with a fixed concentration of cisplatin by PCR amplification with Taq polymerase (NEB) of (IC50 for the cell line used). Post treatment, the cells were exon 2 within the genomic DNA using the forward allowed to form colonies. Colonies were fixed with 95% primer: 5’ […]
methanol and stained with 0.2 % crystal violet. Colonies 3’ and the reverse primer: 5’ […]
with ≥50 cells were counted using a light microscope. Cell […] 3’. PCR product was cloned […]
survival was expressed as the ratio of average number of into a linearized pCR4-TOPO vector and transformed colonies in drug treated cells versus control cells x 100. into OneShot TOP10 E. coli using the TOPO-TA Cloning The experiment was done in triplicate for each drug Kit for Sequencing (Thermofisher). Bacterial colonies concentration. We have previously published the methods were selected with ampicillin and plasmid was extracted for ERCC1 and XPF knockdowns, which were used as using standard procedures. Plasmid was sequenced by controls. Briefly, cells were seeded onto six-well plates GeneWiz using an M13R primer. Potential sites of off-target editing in coding sequences were identified during
(density 2.5 × 10^5 cells /well) in antibiotic free media. guide RNA design with the Optimized CRISPR Design Two transfections were done at 24 h interval in each cell Tool. Primers were designed to amplify the exons line to knockdown ERCC1-XPF together according to containing the potential off-target sites and PCR product the manufacturer ’s (Dharmacon’s smartpools) protocol. was sequenced by GeneWiz. A list of specific off-target Addition of lipid reagent (Dharmafect 2, Dharmacon) sites and primers used to assess these off-target effects are […]

H460 xenografts = conditions: 16168 20 mg/kg i.p. daily or cisplatin 3 mg/kg i.p. twice a week, 10 days
H460 cells [2] = assay: Cisplatin intrastrand adduct repair by ELISA; assay type: cell-based; conditions: 72 hours (last time point), compound 15 μM 2 h then cisplatin at IC90 2 h; relative to 0 hour
H460 cells [3] = assay: Cisplatin interstrand crosslink repair by comet assay; assay type: cell-based; conditions: 72 hours, cisplatin at IC90 alone
Protocol: (B) After treatment, comet assay was performed as described at different time intervals (0, 24, 48 and 72 h). The percentage of interstrand crosslinks remaining was calculated using olive tail moment. Results are represented as mean ± SEM of three independent experiments.
The data is expressed as the percentage of crosslinks remaining at the time points assessed.
Cells were treated with compound (Hit control (9:1 DMSO-glycerol). After incubation at 37°C 1 or Hit 2) and cisplatin or just cisplatin alone in serum for 30 minutes, 2 μL of the pre-incubate was diluted into a free media. […] Cells were further treated with 100 μM
Cells were then trypsinized, pelleted and resuspended in 1% low melting point agarose.

- IC50 (ERCC1-XPF): 530 ± 128 nM
Compound: C[C@@H](O)CN(CCN(C[C@@H](C)O)C[C@@H](C)O)C[C@@H](C)O.O=[N+]([O-])O.[Cu] [NSC103019]

Compound: O=S(=O)(NCCO)c1cc[c]([Sb](=[O])([OH])[OH])cc1 [NSC13776]
- IC50 (ERCC1-XPF): 1150 ± 960 nM

- IC50 (ERCC1-XPF): 790 ± 350 nM
Compound: NC(=O)C[S+]([O-])CC(N)C(=O)O (stereo not shown) [NSC14161]

Compound: Oc1cc(O)c2c(c1)O[C@H](c1ccc(O)c(O)c1)[C@@H](O)[C@@H]2c1c(O)cc(O)c2c1O[C@H](c1ccc(O)c(O)c1)[C@@H](O)C2 [Procyanidin B3]
- potentiation of cisplatin by structural analogues in cell culture / colony survival (H460 cells [1]): activity for only one of the structural analogues

Compound: N.N.[Cl][Pt][Cl] [Cisplatin, cis-diammine-dichloroplatinum (II)]
- tumor growth, single agent (H460 xenografts): initial tumor response that delayed tumor growth
- intrastrand adducts remaining (H460 cells [2]): ~ 15%
- ICLs remaining (H460 cells [3]): 1-5%
